Results from patent publication US6689397B2, “Identification of snake repellents” (priority 1999, dated 2004).

Columns and labels:
[1] = tested on: Brown tree snakes (Boiga irregularis); experiment: Aerosol tests: 2 s aerosol spray onto snake's head, behavior observed for 5 min; assay type: in vivo; settings: single reagents; for activity category from cluster analysis of behaviors (clusters I-V): Ward's method on VM, SM, LAT, TOT, % VM, % SM; for latency to response (movement latency) / movement when sprayed: 2 s aerosol; for latency to response (movement latency): post-hoc comparison with amyl acetate; for movement when sprayed: 5 min observation
Experimental: Brown tree snakes (Boiga irregularis), N=400, were captured on the island of Guam along forest-jungle edge using modified minnow traps with live mice lures or by hand after being spot-lighted on fences. Snakes were individually housed in plastic containers until tested. The holding containers were housed in a military warehouse on Andersen Air Force Base, Guam under a 12:12 light:dark cycle. In general snakes were tested only once. […] Capture of snakes occurred during three separate visits to the island: 1997, 1998, 1999.
Essential oils and individual chemicals were diluted into an inert carrier liquid (water) for the purpose of testing. An emulsifying agent (3× yucca extract) was added to the composition to stabilize the water insoluble essential oils and individual chemicals in aqueous solution. The test formulations consisted of 1% test agent (i.e., a specific essential oil or chemical), 1% 3× yucca extract and 98% water. The formulated contents were held in a reservoir in which a siphon was suspended. Pressurized air, contained in an aerosol can was passed over the orifice of the siphon to create a negative pressure which would drawn the test formulation up through the siphon and eject the formulated contents and pressurized air through a small bore nozzle to create an atomized liquid, i.e. aerosol spray.
For testing, the holding tub was moved to the observation room and the solid lid was replaced with a lid with a screen insert. […] Snakes that became active as a result of the handling were not used in the assay. After a 15 min interval where the snake remained in a coiled position, aerosol was sprayed directly onto the snake's head for 2 s at a distance of 30 mm. Immediately after aerosol application, the observer moved to an observation distance of 3 m. We limited observations to the 5 min following aerosol applications. […] Also, in pilot tests, and with only few exceptions, the escape activity of the snake given an acute (2 s) exposure to the chemical subsided after 5 min.
Behaviors were categorized by a trained observer as follows: VM was a violent, vigorous movement by snakes exposed to the aerosol. This movement was characterized by undirected flailing and vigorous probing of the creases of the test chamber. SM, was characterized as a directed, slow search behavior, often accompanied by tongue flicks. This behavior could also be classified as investigatory behavior. In both cases the duration (s) of these behaviors was noted. The time from the application of the stimulus to the onset of either VM or SM was defined as the latency, LAT-VM and LAT-SM, respectively. For the purposes of analysis we used the latency to the first locomotory behavior, LAT, as the quantifiable metric. TOT was defined as the total amount of time (s) that a snake was engaged in locomatory behavior. The time spent in each locomatory behavior relative to the total active time was defined as % VM and % SM, respectively.
We used a fixed effects analysis of variance for the a priori comparison across chemicals. In the first set of analyses, essential oil was the between measures effects while behavior was the dependent variable. We used a post hoc Tukey's Honest Significance Difference test to isolate differences among test stimuli for each of the behavioral measures. Similar analyses were performed for the single reagents. We also categorized reagents into groups that yielded similar combinations of behaviors using cluster analysis (STATISTICA 1999). Amalgamation of clusters was achieved using Ward's method. This approach is distinct from most clustering algorithms in that it uses an analysis of variance approach to evaluate the distances between clusters. The distance measure used was a Chebychev distance. This approach tends to maximize the number of clusters because it is sensitive to differences among objects along single dimensions. The behavioral dimensions considered were: VM, SM, LAT, TOT, % VM, and % SM.

brown treesnakes = settings: in vivo; cited from earlier work

C=CCc1ccc(O)c(OC)c1 [eugenol]
activity category from cluster analysis of behaviors (clusters I-V) [1]: moderately active

CCCCCOC(C)=O [amyl acetate]
latency to response (movement latency) [1]: shortest | activity category from cluster analysis of behaviors (clusters I-V) [1]: highly irritating, but poor at promoting long-term locomatory behavior

COC(=O)c1ccccc1N [methyl anthranilate]
activity category from cluster analysis of behaviors (clusters I-V) [1]: highly irritating, but poor at promoting long-term locomatory behavior

COc1cccc(C=O)c1 [m-anisaldehyde]
activity category from cluster analysis of behaviors (clusters I-V) [1]: most active

CCCC(=O)OCC [ethyl butyrate]
latency to response (movement latency) [1]: longer than amyl acetate | activity category from cluster analysis of behaviors (clusters I-V) [1]: only weakly active

C/C=C/c1ccc(OC)cc1 [trans-anethole]
activity category from cluster analysis of behaviors (clusters I-V) [1]: most active

CC(C)[C@@H]1CC[C@@H](C)CC1=O [menthone]
activity category from cluster analysis of behaviors (clusters I-V) [1]: highly irritating, but poor at promoting long-term locomatory behavior

CC(C)C12CCC(C)(CC1)O2 [1,4-cineole]
activity category from cluster analysis of behaviors (clusters I-V) [1]: most active

CC(C)=CCC/C(C)=C\CO [nerol]
latency to response (movement latency) [1]: longer than amyl acetate | activity category from cluster analysis of behaviors (clusters I-V) [1]: moderately active

CC(=O)OC/C=C(\C)CCC=C(C)C [geranyal acetate]
activity category from cluster analysis of behaviors (clusters I-V) [1]: most active

O=C(O)C=Cc1ccccc1 [cinnamic acid]
movement when sprayed [1]: did not move at all | latency to response (movement latency) [1]: longer than amyl acetate | activity category from cluster analysis of behaviors (clusters I-V) [1]: did not react

CC12CCC(CC1=O)C2(C)C (stereo not shown) [camphor]
movement when sprayed [1]: did not move at all | latency to response (movement latency) [1]: longer than amyl acetate | activity category from cluster analysis of behaviors (clusters I-V) [1]: did not react

COC(=O)c1ccccc1O [methyl salicylate]
activity category from cluster analysis of behaviors (clusters I-V) [1]: most active

c1ccc2ccccc2c1 [Naphthalene]
irritant to brown treesnakes (brown treesnakes): not an irritant

CC1=CCC2CC1C2(C)C (stereo not shown) [a-pinene]
activity category from cluster analysis of behaviors (clusters I-V) [1]: moderately active

CC(C)=CCC/C(C)=C/CO [geraniol]
movement when sprayed [1]: did not move at all | latency to response (movement latency) [1]: longer than amyl acetate | activity category from cluster analysis of behaviors (clusters I-V) [1]: did not react

C=CC(C)(O)CCC=C(C)C (stereo not shown) [linalool]
latency to response (movement latency) [1]: longer than amyl acetate | activity category from cluster analysis of behaviors (clusters I-V) [1]: only weakly active

O=CC=Cc1ccccc1 [cinnamaldehyde]
activity category from cluster analysis of behaviors (clusters I-V) [1]: most active

C=C(C)[C@H]1CC=C(C)CC1 [limonene]
latency to response (movement latency) [1]: longer than amyl acetate | activity category from cluster analysis of behaviors (clusters I-V) [1]: only weakly active

CC(C)=CCCC(C)=CC=O [citral]
activity category from cluster analysis of behaviors (clusters I-V) [1]: most active

CCOC(=O)Cc1ccccc1 [ethyl phenyl acetate]
activity category from cluster analysis of behaviors (clusters I-V) [1]: moderately active

CC1=CC=C(C(C)C)CC1 [a-terpinene]
latency to response (movement latency) [1]: longer than amyl acetate | activity category from cluster analysis of behaviors (clusters I-V) [1]: only weakly active
